Data taken from patent EP3046573B1, “AMYLIN ANALOGUES” (Zealand Pharma A/S, priority 2013, dated 2015).
Read-outs that look alike come from different tables or passages of the source. Numbered stars: 1 amine (or outer) side, 2 acyl side, 3 side chain; on linkers, the order of the positions; unused ones are H or OH. Bridge positions count the residues as written; N and C are the ends. Square brackets hold non-standard residues; d marks the D form. Peptide text beside a SMILES is read from it. * marks the point of attachment. C20 diacid = O=C(O)CCCCCCCCCCCCCCCCCCC(=O)*; γGlu = O=C(O)[C@H](CCC(=O)[*:2])N[*:1]; NMeI = CC[C@H](C)[C@H](NC)C(=O)O; Orn = NCCC[C@H](N)C(=O)O; Sar = CNCC(=O)O

Key:
[1] = Solubility assessment (turbidity absorbance at 325 nm); format: physicochemical; conditions: stock 2 mg/ml diluted 1:1, ambient temperature (typically 25°C), n=1; for Solubility, Acetate buffer pH 4: 100 mM acetate buffer pH 4.0; for Solubility, Acetate buffer pH 5: 100 mM acetate buffer pH 5.0; for Solubility, Histidine buffer pH 6: 100 mM histidine buffer pH 6.0; for Solubility, Histidine buffer pH 7: 100 mM histidine buffer pH 7.0; for Solubility, Phosphate buffer pH 6: 100 mM phosphate buffer pH 6.0; for Solubility, Phosphate buffer pH 7: 100 mM phosphate buffer pH 7.0; for Solubility, Phosphate buffer pH 7.5: 100 mM phosphate buffer pH7.5
Outline: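 Turbidimetric screen across pH 4.0–7.5 in 100 mM acetate, histidine and phosphate buffers. A 2 mg/ml peptide stock (pH 2.5) was diluted 1:1 into each, then A325 measured at ambient temperature; values ≤ 0.02 AU denoted solubility of 1 mg/ml or more.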

[2] = target: T1, human calcitonin receptor (hCTR2) (Homo sapiens, UniProt P30988); assay: hCTR2 assay: induction of cAMP (AlphaScreen cAMP Assay kit) in COS7 cells expressing hCTR2; format: cell-based
T1 construct: expressed in transfected cells
T1 sequence (P30988 25-474): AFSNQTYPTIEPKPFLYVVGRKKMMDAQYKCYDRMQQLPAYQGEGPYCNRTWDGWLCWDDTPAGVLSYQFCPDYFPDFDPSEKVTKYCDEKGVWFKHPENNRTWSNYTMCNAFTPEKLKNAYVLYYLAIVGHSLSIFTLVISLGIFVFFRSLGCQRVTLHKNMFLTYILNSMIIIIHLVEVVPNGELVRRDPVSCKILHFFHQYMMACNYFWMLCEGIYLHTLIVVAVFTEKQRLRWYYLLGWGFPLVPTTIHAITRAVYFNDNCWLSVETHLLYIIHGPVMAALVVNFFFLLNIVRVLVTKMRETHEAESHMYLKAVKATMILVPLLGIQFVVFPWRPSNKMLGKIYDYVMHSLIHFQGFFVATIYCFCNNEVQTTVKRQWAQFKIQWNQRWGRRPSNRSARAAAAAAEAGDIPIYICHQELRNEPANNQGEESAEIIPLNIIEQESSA
Outline: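 cAMP read-out by AlphaScreen after cell lysis; EC50 and % efficacy vs pramlintide from 4-parameter logistic fitting. Agonist stimulation: hCTR2-COS7 stable cells, 15 min, 37° C, 100 µM IBMX, 0.1% casein, Tyrode/HEPES pH 7.4.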

[3] = cAMP induction in COS7 cells expressing hCTR2, average of a minimum of 3 determinations, read-out: hCTR2 EC50

| SMILES | Solubility, Acetate buffer pH 4 [1] | Solubility, Acetate buffer pH 5 [1] | Solubility, Histidine buffer pH 6 [1] | Solubility, Histidine buffer pH 7 [1] | Solubility, Phosphate buffer pH 6 [1] | Solubility, Phosphate buffer pH 7 [1] | Solubility, Phosphate buffer pH 7.5 [1] | EC50 [2, 3] [nM] | EC50 [2] [nM] |
| --- | --- | --- | --- | --- | --- | --- | --- | --- | --- |
| CC[C@H](C)[C@@H](C(=O)N[C@@H](CC(C)C)C(=O)N[C@@H](CO)C(=O)N[C@@H](CO)C(=O)N[C@H](C(=O)N[C@@H](CC(N)=O)C(=O)N[C@H](C(=O)NCC(=O)N[C@@H](CO)C(=O)N[C@@H](CC(N)=O)C(=O)N[C@H](C(=O)N1CCC[C@H]1C(N)=O)[C@@H](C)O)C(C)C)[C@@H](C)O)N(C)C(=O)[C@H](C)NC(=O)CN(C)C(=O)[C@H](Cc1ccccc1)NC(=O)[C@H](CO)NC(=O)[C@H](CO)NC(=O)[C@H](Cc1c[nH]cn1)NC(=O)[C@H](Cc1c[nH]cn1)NC(=O)[C@H](CC(C)C)NC(=O)[C@H](Cc1ccccc1)NC(=O)[C@H](CCC(=O)O)NC(=O)[C@H](C)NC(=O)[C@H](CC(C)C)NC(=O)[C@H](CCCNC(=N)N)NC(=O)[C@H](CCC(N)=O)NC(=O)[C@@H](NC(=O)[C@H](C)NC(=O)[C@@H]1CSSC[C@H](NC(=O)[C@H](CCCNC(=N)N)NC(=O)CC[C@H](NC(=O)CCCCCCCCCCCCCCCCCCC(=O)O)C(=O)O)C(=O)N[C@@H](CC(N)=O)C(=O)N[C@@H]([C@@H](C)O)C(=O)N[C@@H](C)C(=O)N[C@@H]([C@@H](C)O)C(=O)N1)[C@@H](C)O [Compound 52, [19CD]-isoGlu-RC()NTATC()ATQRLAEFLHHSSF-Gly(Me)-A-Ile(Me)-LSSTNVGSNTP-NH2] ({C20 diacid-γGlu}-RCNTATCATQRLAEFLHHSSF[Sar]A[NMeI]LSSTNVGSNTP-NH2; disulfide 2-7) | SS (SS indicates solubility ≥ 1mg/ml) | SS (SS indicates solubility ≥ 1mg/ml) | SS (SS indicates solubility ≥ 1mg/ml) | SS (SS indicates solubility ≥ 1mg/ml) | SS (SS indicates solubility ≥ 1mg/ml) | SS (SS indicates solubility ≥ 1mg/ml) | SS (SS indicates solubility ≥ 1mg/ml) | 0.076 | – |
| CC[C@H](C)[C@@H](C(=O)N[C@@H](CC(C)C)C(=O)N[C@@H](CO)C(=O)N[C@@H](CO)C(=O)N[C@H](C(=O)N[C@@H](CC(N)=O)C(=O)N[C@H](C(=O)NCC(=O)N[C@@H](CO)C(=O)N[C@@H](CC(N)=O)C(=O)N[C@H](C(=O)N1CCC[C@H]1C(N)=O)[C@@H](C)O)C(C)C)[C@@H](C)O)N(C)C(=O)CN(C)C(=O)[C@H](Cc1ccccc1)NC(=O)[C@H](CC(N)=O)NC(=O)[C@H](CC(N)=O)NC(=O)[C@H](CO)NC(=O)[C@H](CO)NC(=O)[C@H](Cc1c[nH]cn1)NC(=O)[C@H](Cc1c[nH]cn1)NC(=O)[C@H](CC(C)C)NC(=O)[C@H](Cc1ccccc1)NC(=O)[C@H](CCC(=O)O)NC(=O)[C@H](C)NC(=O)[C@H](CC(C)C)NC(=O)[C@H](CCCNC(=N)N)NC(=O)[C@H](CCC(N)=O)NC(=O)[C@@H](NC(=O)[C@H](C)NC(=O)[C@@H]1CSSC[C@H](NC(=O)[C@H](CCCN)NC(=O)CC[C@H](NC(=O)CCCCCCCCCCCCCCCCCCC(=O)O)C(=O)O)C(=O)N[C@@H](CC(N)=O)C(=O)N[C@@H]([C@@H](C)O)C(=O)N[C@@H](C)C(=O)N[C@@H]([C@@H](C)O)C(=O)N1)[C@@H](C)O [Compound 66, [19CD]-isoGlu-Orn-C()NTATC()ATQRLAEFLHHSSNNF-Gly(Me)-Ile(Me)-LSSTNVGSNTP-NH2] ({C20 diacid-γGlu}-[Orn]CNTATCATQRLAEFLHHSSNNF[Sar][NMeI]LSSTNVGSNTP-NH2; disulfide 2-7) | SS (SS indicates solubility ≥ 1mg/ml) | SS (SS indicates solubility ≥ 1mg/ml) | SS (SS indicates solubility ≥ 1mg/ml) | SS (SS indicates solubility ≥ 1mg/ml) | SS (SS indicates solubility ≥ 1mg/ml) | SS (SS indicates solubility ≥ 1mg/ml) | SS (SS indicates solubility ≥ 1mg/ml) | 0.11 | – |
| CC[C@H](C)[C@@H](C(=O)N[C@@H](CC(C)C)C(=O)N[C@@H](CO)C(=O)N[C@@H](CO)C(=O)N[C@H](C(=O)N[C@@H](CC(N)=O)C(=O)N[C@H](C(=O)NCC(=O)N[C@@H](CO)C(=O)N[C@@H](CC(N)=O)C(=O)N[C@H](C(=O)N1CCC[C@H]1C(N)=O)[C@@H](C)O)C(C)C)[C@@H](C)O)N(C)C(=O)[C@H](C)NC(=O)CN(C)C(=O)[C@H](CC(N)=O)NC(=O)[C@H](CC(N)=O)NC(=O)[C@H](CO)NC(=O)[C@H](CO)NC(=O)[C@H](Cc1c[nH]cn1)NC(=O)[C@H](Cc1c[nH]cn1)NC(=O)[C@H](CC(C)C)NC(=O)[C@H](Cc1ccccc1)NC(=O)[C@H](CCC(=O)O)NC(=O)[C@H](C)NC(=O)[C@H](CC(C)C)NC(=O)[C@H](CCCNC(=N)N)NC(=O)[C@H](CCC(N)=O)NC(=O)[C@@H](NC(=O)[C@H](C)NC(=O)[C@@H]1CSSC[C@H](NC(=O)[C@H](CCCNC(=N)N)NC(=O)CC[C@H](NC(=O)CCCCCCCCCCCCCCCCCCC(=O)O)C(=O)O)C(=O)N[C@@H](CC(N)=O)C(=O)N[C@@H]([C@@H](C)O)C(=O)N[C@@H](C)C(=O)N[C@@H]([C@@H](C)O)C(=O)N1)[C@@H](C)O [Compound 50, [19CD]-isoGlu-RC()NTATC()ATQRLAEFLHHSSNN-Gly(Me)-A-Ile(Me)-LSSTNVGSNTP-NH2] ({C20 diacid-γGlu}-RCNTATCATQRLAEFLHHSSNN[Sar]A[NMeI]LSSTNVGSNTP-NH2; disulfide 2-7) | SS (SS indicates solubility ≥ 1mg/ml) | SS (SS indicates solubility ≥ 1mg/ml) | SS (SS indicates solubility ≥ 1mg/ml) | SS (SS indicates solubility ≥ 1mg/ml) | SS (SS indicates solubility ≥ 1mg/ml) | SS (SS indicates solubility ≥ 1mg/ml) | SS (SS indicates solubility ≥ 1mg/ml) | 0.14 | – |
| CC[C@H](C)[C@@H](C(=O)N[C@@H](CC(C)C)C(=O)N[C@@H](CO)C(=O)N[C@@H](CO)C(=O)N[C@H](C(=O)N[C@@H](CC(N)=O)C(=O)N[C@H](C(=O)NCC(=O)N[C@@H](CO)C(=O)N[C@@H](CC(N)=O)C(=O)N[C@H](C(=O)N1CCC[C@H]1C(N)=O)[C@@H](C)O)C(C)C)[C@@H](C)O)N(C)C(=O)[C@H](C)NC(=O)CN(C)C(=O)[C@H](Cc1ccccc1)NC(=O)[C@H](CC(N)=O)NC(=O)[C@H](CC(N)=O)NC(=O)[C@H](CO)NC(=O)[C@H](CO)NC(=O)[C@H](Cc1c[nH]cn1)NC(=O)[C@H](Cc1c[nH]cn1)NC(=O)[C@H](CC(C)C)NC(=O)[C@H](Cc1ccccc1)NC(=O)[C@H](CCC(=O)O)NC(=O)[C@H](C)NC(=O)[C@H](CC(C)C)NC(=O)[C@H](CCCNC(=N)N)NC(=O)[C@H](CCC(N)=O)NC(=O)[C@@H](NC(=O)[C@H](C)NC(=O)[C@@H]1CSSC[C@H](NC(=O)[C@H](CCCCN)NC(=O)CC[C@H](NC(=O)CCCCCCCCCCCCCCCCCCC(=O)O)C(=O)O)C(=O)N[C@@H](CC(N)=O)C(=O)N[C@@H]([C@@H](C)O)C(=O)N[C@@H](C)C(=O)N[C@@H]([C@@H](C)O)C(=O)N1)[C@@H](C)O [Compound 19, [19CD]-isoGlu-KC()NTATC()ATQRLAEFLHHSSNNF-Gly(Me)-A-Ile(Me)-LSSTNVGSNTP-NH2] ({C20 diacid-γGlu}-KCNTATCATQRLAEFLHHSSNNF[Sar]A[NMeI]LSSTNVGSNTP-NH2; disulfide 2-7) | SS (SS indicates solubility ≥ 1mg/ml) | SS (SS indicates solubility ≥ 1mg/ml) | SS (SS indicates solubility ≥ 1mg/ml) | SS (SS indicates solubility ≥ 1mg/ml) | SS (SS indicates solubility ≥ 1mg/ml) | SS (SS indicates solubility ≥ 1mg/ml) | SS (SS indicates solubility ≥ 1mg/ml) | – | 0.071 |
